“Also recorded” adds a separate entry of the source. Like-named read-outs stand apart in the source and are kept apart here.

Data set [1] has as its system ILM model substrate (silk granules). The settings on record: for Ratio λmax with MS and reference 632-635 nm: 632 nm (7a), 634 nm (7b, 7d), 635 nm (7c); for binding to the model substrate (in words): UV/vis, before and after treatment with model substrate.
Experimental: To examine the binding of various dyes to the ILM model substrate, UV/vis measurements of the dyes Brilliant Blue G (BBG), compounds 7a-d, and Indocyanine green (ICG) were performed at various concentrations both before and after treatment with the model substrate. The aim of these measurements is to compare the binding strength of the individual dyes.
Stock solutions of the dyes with a concentration of 5 mg/mL were prepared using phosphate-buffered saline (PBS) at physiological pH 7.4.
To ensure measurement is as accurate as possible, the dye-model substrate solutions and the references were not prepared separately, but likewise used as stock solutions.
Subsequently, 6 mg of ILM model substrate plus 6 mL of dye solution and a reference solution comprising only 6 mL of dye solution were stirred for exactly 10 minutes and then centrifuged together for 8 minutes at 6000 rpm. The solutions were photographed and the carefully decanted supernatants analyzed by UV/vis spectroscopy. The ratios of the absorption maxima λmax with the model substrate to the absorption maximum λmax of the reference were calculated. This allowed the binding strengths of the individual dyes to be compared.
Data set [2] can be described thus: Solubility / precipitation of dye in phosphate-buffered saline. The format is physicochemical. The settings on record: PBS. An excerpt: Indocyanine green is one of the most important dyes in chromovitrectomy, particularly in the field of ILM peeling. The dye does, however, give rise to some problems and also to handling difficulties. Although it has long since been used for staining the inner limiting membrane and epiretinal membranes, studies have shown the dye to have numerous disadvantages.

`CCCC[N+](C)(C)CCCNc1ccc(NCCC[N+](C)(C)CCCC)c2c1C(=O)c1ccccc1C2=O` [7a, N,N′=(((9,10-dioxo-9,10-dihydroanthracene-1,4-diyl)bis(azanediyl))bis(propane-3,1-diy1))bis(N,N-dimethylbutan-1-aminium) bromide]: the “Ratio λmax with MS and reference 588 nm” value came out at 54% in data set [1] (0.005 mg/mL in PBS pH 7.4); 52% in data set [1] (0.01 mg/mL in PBS pH 7.4); 54% in data set [1] (0.02 mg/mL in PBS pH 7.4); 57% in data set [1] (0.04 mg/mL in PBS pH 7.4); 67% in data set [1] (0.08 mg/mL in PBS pH 7.4); 76% in data set [1] (0.16 mg/mL in PBS pH 7.4). Further, the “Ratio λmax with MS and reference 632-635 nm” value was 54% in data set [1] (0.005 mg/mL in PBS pH 7.4); 52% in data set [1] (0.01 mg/mL in PBS pH 7.4); 55% in data set [1] (0.02 mg/mL in PBS pH 7.4); 58% in data set [1] (0.04 mg/mL in PBS pH 7.4); 69% in data set [1] (0.08 mg/mL in PBS pH 7.4); 78% in data set [1] (0.16 mg/mL in PBS pH 7.4).

Take `CCCCCCCC[N+](C)(C)CCCNc1ccc(NCCC[N+](C)(C)CCCCCCCC)c2c1C(=O)c1ccccc1C2=O` [7b, N,N′-(((9,10-dioxo-9,10-dihydroanthracene-1,4-diyl)bis(azanediyl))bis(propane-3,1-diyl))bis(N,N-dimethyloctan-1-aminium) bromide]: the “Ratio λmax with MS and reference 588 nm” value in data set [1] (0.005 mg/mL in PBS pH 7.4) is recorded as 11%; in data set [1] (0.01 mg/mL in PBS pH 7.4) it was 10%; in data set [1] (0.02 mg/mL in PBS pH 7.4) it was 6%; in data set [1] (0.04 mg/mL in PBS pH 7.4), 8%; in data set [1] (0.08 mg/mL in PBS pH 7.4) it was 18%; in data set [1] (0.16 mg/mL in PBS pH 7.4), 32%. Besides, the “Ratio λmax with MS and reference 632-635 nm” value in data set [1] (0.005 mg/mL in PBS pH 7.4) is 9%; in data set [1] (0.01 mg/mL in PBS pH 7.4), 8%; in data set [1] (0.02 mg/mL in PBS pH 7.4), 6%; in data set [1] (0.04 mg/mL in PBS pH 7.4), 8%; in data set [1] (0.08 mg/mL in PBS pH 7.4), 19%; in data set [1] (0.16 mg/mL in PBS pH 7.4) it was 34%.

Turning to `CCCCCCCCCC[N+](C)(C)CCCNc1ccc(NCCC[N+](C)(C)CCCCCCCCCC)c2c1C(=O)c1ccccc1C2=O` [7c, N,N′=(((9,10-dioxo-9,10-dihydroanthracene-1,4-diyl)bis(azanediyl))bis(propane-3,1-diyl))bis(N,N-dimethyldecan-1-aminium) Bromide], the “Ratio λmax with MS and reference 588 nm” value is recorded as 48% in data set [1] (0.005 mg/mL in PBS pH 7.4); 21% in data set [1] (0.01 mg/mL in PBS pH 7.4); 7% in data set [1] (0.02 mg/mL in PBS pH 7.4); 4% in data set [1] (0.04 mg/mL in PBS pH 7.4); 8% in data set [1] (0.08 mg/mL in PBS pH 7.4); 13% in data set [1] (0.16 mg/mL in PBS pH 7.4). Besides, the “Ratio λmax with MS and reference 632-635 nm” value in data set [1] (0.005 mg/mL in PBS pH 7.4) was 37%; in data set [1] (0.01 mg/mL in PBS pH 7.4), 17%; in data set [1] (0.02 mg/mL in PBS pH 7.4), 7%; in data set [1] (0.04 mg/mL in PBS pH 7.4), 5%; in data set [1] (0.08 mg/mL in PBS pH 7.4) it was 10%; in data set [1] (0.16 mg/mL in PBS pH 7.4), 17%.

Regarding `CCCCCCCCCCCC[N+](C)(C)CCCNc1ccc(NCCC[N+](C)(C)CCCCCCCCCCCC)c2c1C(=O)c1ccccc1C2=O` [7d, N,N′(((9,10-dioxo-9,10-dihydroanthracene-1,4-diyl)bis(azanediyl))bis(propane-3,1-diyl))bis(N,N-dimethyldodecan-1-aminium) Bromide], the “Ratio λmax with MS and reference 588 nm” value was 12% in data set [1] (0.005 mg/mL in PBS pH 7.4); 7% in data set [1] (0.01 mg/mL in PBS pH 7.4); 3% in data set [1] (0.02 mg/mL in PBS pH 7.4); 3% in data set [1] (0.04 mg/mL in PBS pH 7.4); 1% in data set [1] (0.08 mg/mL in PBS pH 7.4); 18% in data set [1] (0.16 mg/mL in PBS pH 7.4). Besides, the “Ratio λmax with MS and reference 632-635 nm” value is 13% in data set [1] (0.005 mg/mL in PBS pH 7.4); 8% in data set [1] (0.01 mg/mL in PBS pH 7.4); 4% in data set [1] (0.02 mg/mL in PBS pH 7.4); 3% in data set [1] (0.04 mg/mL in PBS pH 7.4); 2% in data set [1] (0.08 mg/mL in PBS pH 7.4); 18% in data set [1] (0.16 mg/mL in PBS pH 7.4).

Regarding `CCOc1ccc(Nc2ccc(/C(=C3C=C/C(=[N+](/CC)Cc4cccc(S(=O)(=O)[O-])c4)C=C/3C)c3ccc(N(CC)Cc4cccc(S(=O)(=O)[O-])c4)cc3C)cc2)cc1.[Na+]` [BBG, Brilliant Blue G, reference compound], the figures for the “binding of the dye” value in data set [1] (0.005 mg/mL in PBS pH 7.4) and in data set [1] (0.08 mg/mL in PBS pH 7.4) were 76% and 48%, respectively. For the same molecule, the “Ratio λmax with MS and reference” value in data set [1] (0.005 mg/mL in PBS pH 7.4, maximum about 585 nm) came out at 24%; in data set [1] (0.01 mg/mL in PBS pH 7.4, maximum about 585 nm), 32%; in data set [1] (0.02 mg/mL in PBS pH 7.4, maximum about 585 nm), 44%; in data set [1] (0.04 mg/mL in PBS pH 7.4, maximum about 585 nm), 48%; in data set [1] (0.08 mg/mL in PBS pH 7.4, maximum about 585 nm), 62%. Further, in data set [1], the “binding to the model substrate (in words)” value is “good binding”.

Turning to `CC1(C)C(/C=C/C=C/C=C/C=C2\N(CCCCS(=O)(=O)O)c3ccc4ccccc4c3C2(C)C)=[N+](CCCCS(=O)(=O)[O-])c2ccc3ccccc3c21` [ICG, Indocyanine green, reference compound], in data set [2], the “solubility in saline solutions / phosphate-buffered saline” value is listed as “poor solubility; also recorded: causes the compound to precipitate”. Also, the “Ratio λmax with MS and reference” value turned out to be 47% in data set [1] (0.005 mg/mL in double-distilled water, 779/780 nm); 95% in data set [1] (0.01 mg/mL in double-distilled water, 779/780 nm); 42% in data set [1] (0.02 mg/mL in double-distilled water, 779/780 nm); 85% in data set [1] (0.04 mg/mL in double-distilled water, 779/780 nm). Also, the “binding to the model substrate (in words)” value in data set [1] is reported as “positive binding”.
